# pEC50: −log10 of the molar value.
# Tests used:
# Type in all cases: cell-based
# [1] = system: RARs and RXRs; assay: Co-transfection assay, RAR and RXR receptors taken together; settings: for RAR activity (in words): RARs; for activity on the RARs or RXRs (in words): any of the RARs or RXRs
# Description: Utilizing the "cis-trans" or "co-transfection" assay described by Evans et al., Science, 240:889-95 (May 13, 1988), the disclosure of which is herein incorporated by reference, the retinoid compounds of the present invention were tested and found to have strong, specific activity as either selective RAR agonists, selective RXR agonists, or as pan-agonist activators of both RAR and RXR receptors. This assay is described in further detail in U.S. Pat. Nos. 4,981,784 and 5,071,773, the disclosures of which are incorporated herein by reference.
# In the co-transfection assay, a cloned cDNA for an IR (e.g., human RARα, RARβ, RXRγ) under the control of a constitutive promoter (e.g., the SV 40 promoter) is introduced by transfection (a procedure to induce cells to take up foreign genes) into a background cell substantially devoid of endogenous IRs. This introduced gene directs the recipient cells to make the IR protein of interest. A second gene is also introduced (co-transfected) into the same cells in conjunction with the IR gene. This second gene, comprising the cDNA for a reporter protein, such as firefly luciferase (LUC), is controlled by an appropriate hormone responsive promoter containing a hormone response element (HRE). This reporter plasmid functions as a reporter for the transcription-modulating activity of the target IR. Thus, the reporter acts as a surrogate for the products (mRNA then protein) normally expressed by a gene under control of the target receptor and its native hormone.
# The co-transfection assay can detect small molecule agonists or antagonists of target IRs. Exposing the transfected cells to an agonist ligand compound increases reporter activity in the transfected cells. This activity can be conveniently measured, e.g., by increasing luciferase production, which reflects compound-dependent, IR-mediated increases in reporter transcription. […] . Increasing concentrations of a suspected antagonist will decrease the reporter signal (e.g., luciferase production). The co-transfection assay is therefore useful to detect both agonists and antagonists of specific IRs. Furthermore, it determines not only whether a compound interacts with a particular IR, but whether this interaction mimics (agonizes) or blocks (antagonizes) the effects of the native regulatory molecules on target gene expression, as well as the specificity and strength of this interaction.
# To determine RAR and/or RXR agonist activity of the compounds of the present invention, the CV-1 cells were transiently transfected by calcium phosphate coprecipitation according to the procedure of Berger et al., 41 J. Steroid Biochem. Mol. Biol., 733 (1992) with the following receptor expressing plasmids: pRShRARα: Giguere et at., 330 Nature, 624 (1987); pRShRARβ and pRShRARγ, Ishikawa et al., 4 Mol. Endocrin., 837 (1990); pRShRXRα, Mangelsdorf et at., 345 Nature, 224 (1990); and pRSmRXRβ and pRSmRXRγ, Mangelsdorf et al., 6 Genes & Devel., 329 (1992), the disclosures of which are herein incorporated by reference. Each of these receptor expressing plasmids was co-transfected at a concentration of 5 ng/well, along with a basal reporter plasmid at 100 ng/well, the internal control plasmid pRS-β-Gal at 50 ng/well and filler DNA, pGEM at 45 ng/well.
# [2] = target: T1, RARβ (Homo sapiens, UniProt P10826); assay: Co-transfection assay, RARβ agonist activity; settings: CV-1 cells, 40 hours, read-out: Potency (EC50) RARβ
# T1 construct: expressed in transfected cells; host or cells: CV-1 (African green monkey kidney)
# T1 sequence (P10826 1-448 isoform P10826-2): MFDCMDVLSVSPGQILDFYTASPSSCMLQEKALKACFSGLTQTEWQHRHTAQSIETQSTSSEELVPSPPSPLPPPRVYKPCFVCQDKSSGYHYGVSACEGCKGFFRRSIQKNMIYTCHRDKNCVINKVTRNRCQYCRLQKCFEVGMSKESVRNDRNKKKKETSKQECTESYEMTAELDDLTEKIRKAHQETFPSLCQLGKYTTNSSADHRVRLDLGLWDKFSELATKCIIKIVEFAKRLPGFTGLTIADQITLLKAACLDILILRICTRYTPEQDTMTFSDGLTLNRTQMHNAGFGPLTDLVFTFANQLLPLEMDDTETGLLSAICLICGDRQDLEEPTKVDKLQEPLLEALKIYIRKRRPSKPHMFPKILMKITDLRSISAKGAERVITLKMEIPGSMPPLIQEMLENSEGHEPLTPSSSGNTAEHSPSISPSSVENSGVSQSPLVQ
# [3] = target: T2, RXRβ (Mus musculus, UniProt P28704); assay: Co-transfection assay, RXRβ agonist activity; settings: CV-1 cells, 40 hours, read-out: Potency (EC50) RXRβ
# T2 construct: expressed in transfected cells; host or cells: CV-1 (African green monkey kidney)
# T2 sequence (P28704 1-520): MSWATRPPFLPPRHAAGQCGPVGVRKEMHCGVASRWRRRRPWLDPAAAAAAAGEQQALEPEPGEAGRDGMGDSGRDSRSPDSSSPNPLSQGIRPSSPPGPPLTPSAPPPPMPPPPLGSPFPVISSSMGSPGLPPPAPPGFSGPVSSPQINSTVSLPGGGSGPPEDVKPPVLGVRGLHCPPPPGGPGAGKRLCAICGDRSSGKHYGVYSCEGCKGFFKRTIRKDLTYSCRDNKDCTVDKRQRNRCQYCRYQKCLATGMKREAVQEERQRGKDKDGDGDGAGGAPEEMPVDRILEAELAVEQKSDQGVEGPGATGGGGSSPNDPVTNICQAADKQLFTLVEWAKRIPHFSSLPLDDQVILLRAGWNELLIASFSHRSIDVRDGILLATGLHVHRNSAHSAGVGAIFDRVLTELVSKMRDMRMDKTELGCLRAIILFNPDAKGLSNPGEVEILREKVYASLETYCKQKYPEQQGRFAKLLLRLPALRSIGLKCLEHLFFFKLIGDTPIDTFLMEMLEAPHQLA
# [4] = target: T3, RARα (Homo sapiens, UniProt P10276); assay: Co-transfection assay, RARα agonist activity; settings: CV-1 cells, 40 hours, read-out: Potency (EC50) RARα
# T3 construct: expressed in transfected cells; host or cells: CV-1 (African green monkey kidney)
# T3 sequence (P10276 1-462): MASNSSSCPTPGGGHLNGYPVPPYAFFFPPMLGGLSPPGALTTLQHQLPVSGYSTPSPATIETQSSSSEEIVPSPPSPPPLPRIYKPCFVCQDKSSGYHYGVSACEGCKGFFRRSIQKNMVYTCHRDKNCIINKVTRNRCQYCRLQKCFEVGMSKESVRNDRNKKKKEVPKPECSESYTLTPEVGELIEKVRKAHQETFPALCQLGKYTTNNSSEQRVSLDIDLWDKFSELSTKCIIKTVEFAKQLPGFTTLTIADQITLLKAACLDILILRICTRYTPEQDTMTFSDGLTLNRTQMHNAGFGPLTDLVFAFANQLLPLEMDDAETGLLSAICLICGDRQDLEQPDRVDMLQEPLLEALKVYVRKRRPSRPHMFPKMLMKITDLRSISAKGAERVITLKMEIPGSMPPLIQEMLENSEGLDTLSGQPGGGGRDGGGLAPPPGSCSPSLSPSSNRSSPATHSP
# [5] = target: T4, RXRα (Homo sapiens, UniProt P19793); assay: Co-transfection assay, RXRα agonist activity; settings: CV-1 cells, 40 hours, read-out: Potency (EC50) RXRα
# T4 construct: expressed in transfected cells; host or cells: CV-1 (African green monkey kidney)
# T4 sequence (P19793 1-462): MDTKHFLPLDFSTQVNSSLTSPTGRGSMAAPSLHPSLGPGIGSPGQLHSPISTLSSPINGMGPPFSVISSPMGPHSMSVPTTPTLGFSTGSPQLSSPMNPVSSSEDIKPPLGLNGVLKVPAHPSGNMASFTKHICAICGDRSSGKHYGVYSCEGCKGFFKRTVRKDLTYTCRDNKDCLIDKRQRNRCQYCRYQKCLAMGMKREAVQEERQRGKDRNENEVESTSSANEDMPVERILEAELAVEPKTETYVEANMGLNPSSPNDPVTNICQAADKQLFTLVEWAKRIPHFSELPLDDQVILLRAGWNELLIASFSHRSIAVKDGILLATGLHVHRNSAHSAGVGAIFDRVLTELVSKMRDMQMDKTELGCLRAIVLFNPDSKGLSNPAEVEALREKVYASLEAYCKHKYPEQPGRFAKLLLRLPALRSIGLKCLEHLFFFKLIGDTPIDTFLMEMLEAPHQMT
# [6] = target: T5, RARγ (Homo sapiens, UniProt P13631); assay: Co-transfection assay, RARγ agonist activity; settings: CV-1 cells, 40 hours, read-out: Potency (EC50) RARγ
# T5 construct: expressed in transfected cells; host or cells: CV-1 (African green monkey kidney)
# T5 sequence (P13631 1-454): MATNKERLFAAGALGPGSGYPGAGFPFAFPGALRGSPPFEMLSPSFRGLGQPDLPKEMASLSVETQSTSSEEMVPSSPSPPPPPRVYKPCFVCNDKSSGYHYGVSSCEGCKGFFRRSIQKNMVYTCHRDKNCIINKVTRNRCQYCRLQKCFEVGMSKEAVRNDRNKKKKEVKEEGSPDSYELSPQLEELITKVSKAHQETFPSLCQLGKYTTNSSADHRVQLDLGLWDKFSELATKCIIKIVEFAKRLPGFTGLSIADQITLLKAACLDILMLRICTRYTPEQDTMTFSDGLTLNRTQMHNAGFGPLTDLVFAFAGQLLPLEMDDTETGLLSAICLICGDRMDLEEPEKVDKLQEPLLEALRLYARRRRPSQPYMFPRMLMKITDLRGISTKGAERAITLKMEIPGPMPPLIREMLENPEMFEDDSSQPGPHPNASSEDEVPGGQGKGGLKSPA
# [7] = target: T6, RXRγ (Mus musculus, UniProt P28705); assay: Co-transfection assay, RXRγ agonist activity; settings: CV-1 cells, 40 hours, read-out: Potency (EC50) RXRγ
# T6 construct: expressed in transfected cells; host or cells: CV-1 (African green monkey kidney)
# T6 sequence (P28705 1-463): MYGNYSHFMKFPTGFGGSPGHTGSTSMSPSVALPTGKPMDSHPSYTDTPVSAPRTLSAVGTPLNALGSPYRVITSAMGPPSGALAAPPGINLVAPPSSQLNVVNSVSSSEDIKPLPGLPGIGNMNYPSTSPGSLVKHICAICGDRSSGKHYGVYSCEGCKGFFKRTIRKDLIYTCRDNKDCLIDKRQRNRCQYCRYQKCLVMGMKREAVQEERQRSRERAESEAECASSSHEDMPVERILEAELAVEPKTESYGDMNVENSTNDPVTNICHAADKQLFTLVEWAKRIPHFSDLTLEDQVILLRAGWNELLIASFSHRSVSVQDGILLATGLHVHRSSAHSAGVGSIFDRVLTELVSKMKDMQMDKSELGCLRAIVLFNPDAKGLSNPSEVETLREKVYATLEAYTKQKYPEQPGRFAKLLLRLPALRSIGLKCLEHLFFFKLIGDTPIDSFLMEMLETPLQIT
compound,measurement,setting,value
"C/C(=C/C=C/C(C)=C/C(=O)O)c1cc(C(C)C)cc(C(C)C)c1 [Compound 43, (2E, 4E, 6Z)-7-(3,5-Di-isopropylphenyl)-3-methylocta-2,4,6-trienoic acid]",potency profile in comparison to 9-cis retinoic acid (in words),"[1]; versus 9-cis, pan-agonist",superior potency profile
"CC(/C=C/C=C(\C)c1ccc(C(C)(C)C)cc1)=C\C(=O)O [Compound 44, (2E, 4E, 6E)-7-(4-T-butyl-phenyl)-3-methylocta-2,4,6-trienoic acid]",pEC50,[2],7.43
same,pEC50,[3],7.68
same,pEC50,[4],6.65
same,pEC50,[5],5.84
same,pEC50,[6],7.48
same,pEC50,[7],6.65
"CC(/C=C/C=C1\CCOc2c1cc(C(C)(C)C)cc2C(C)(C)C)=C\C(=O)O [Compound 39, (2E,4E,6E)-6-(6,8,-Di-t-butylchroman-4-ylidene)-3-methylhexa-2,4,6-trienoicacid]",RAR activity (in words),[1],extremely potent RAR active compounds
"CCC/C(=C/C=C/C(C)=C/C(=O)O)c1cc(C(C)(C)C)cc(C(C)(C)C)c1 [Compound 28, (2E, 4E, 6Z)-7-(3,5-Di-t-butylphenyl)-3-methyldeca-2,4,6-trienoic acid]",RXR activity (in words),[1]; RXRs,very potent and selective RXR active compound
"COc1c(C(C)(C)C)cc(/C(C)=C/C=C/C(C)=C/C(=O)O)cc1C(C)(C)C [Compound 47, (2E, 4E, 6E) -3-Methyl-7-(3,5-di-t-butyl-4-methoxyphenyl)octa-2,4,6-trienoic acid]",RAR activity (in words),[1],extremely potent RAR active compounds
same,selectivity among RARs (in words),[1]; RARβ and RARγ,selectivity on RARβ and RARγ
"COC(/C=C/C=C(\C)c1ccc(C(C)(C)C)cc1)=C/C(=O)O [D, (2E,4E,6E)-3-methoxy-7-(4-t-butylphenyl)octa-2,4,6-trienoic acid, reference compound]",activity on the RARs or RXRs (in words),[1],"no, or virtually no, activity"
"COc1cc(C)c(/C=C/C=C/C=C(\C)C(=O)O)c(C)c1C [C, (2E,4E,6E)-2-methyl-7-(2,3,6-trimethyl-4-methoxyphenyl)hepta-2,4,6-trienoic acid, reference compound]",activity on the RARs or RXRs (in words),[1],"no, or virtually no, activity"
"COc1ccc(/C(C)=C/C=C/C(C)=C/C(=O)O)cc1 [B, (2E,4E,6E)-3-methyl-7-(4-methoxyphenyl)octa-2,4,6-trienoic acid, reference compound]",activity on the RARs or RXRs (in words),[1],"no, or virtually no, activity"
"CC(/C=C/C=C(\C)c1cc(C(F)(F)F)cc(C(F)(F)F)c1)=C\C(=O)O [Compound 41, (2E, 4E, 6E)-7-(3,5-Di-trifluoromethylphenyl)-3-methylocta-2,4,6-trienoic acid]",RAR activity (in words),[1],extremely potent RAR active compounds
"COc1ccc(/C(C)=C/C=C/C(C)=C/C(=O)O)cc1OC [A, (2E,4E,6E)-3-methyl-7-(3,4-dimethoxyphenyl)octa-2,4,6-trienoic acid, reference compound]",activity on the RARs or RXRs (in words),[1],"no, or virtually no, activity"
